From patent US20240383856A1 (Zedira GmbH, priority 2021, published 2024) come the findings set out here.

Data set [1] deals with T1, recombinant human transglutaminase 2 (Homo sapiens, UniProt P21980).
T1 construct: purchased Zedira T022
T1 sequence (P21980 1-687): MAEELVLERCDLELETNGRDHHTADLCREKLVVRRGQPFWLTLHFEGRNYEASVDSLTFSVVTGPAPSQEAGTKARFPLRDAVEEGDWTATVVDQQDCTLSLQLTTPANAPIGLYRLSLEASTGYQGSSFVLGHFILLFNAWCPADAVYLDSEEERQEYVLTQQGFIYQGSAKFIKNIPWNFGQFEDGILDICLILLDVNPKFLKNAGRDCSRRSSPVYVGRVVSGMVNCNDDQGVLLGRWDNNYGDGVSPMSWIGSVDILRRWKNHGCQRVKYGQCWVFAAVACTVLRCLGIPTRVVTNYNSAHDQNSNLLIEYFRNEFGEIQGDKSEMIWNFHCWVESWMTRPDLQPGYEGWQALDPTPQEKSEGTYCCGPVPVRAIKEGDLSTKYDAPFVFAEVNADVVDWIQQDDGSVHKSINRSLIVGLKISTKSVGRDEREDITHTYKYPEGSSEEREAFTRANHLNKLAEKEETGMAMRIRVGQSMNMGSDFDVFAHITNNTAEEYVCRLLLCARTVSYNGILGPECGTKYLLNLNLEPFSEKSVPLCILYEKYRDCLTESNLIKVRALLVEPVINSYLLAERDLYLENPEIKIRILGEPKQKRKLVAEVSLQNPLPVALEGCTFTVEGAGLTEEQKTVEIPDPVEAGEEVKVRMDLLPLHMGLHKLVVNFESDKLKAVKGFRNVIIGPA
The data set can be described thus: Transglutaminase assay (DCC-assay): incorporation of dansylcadaverine into dimethylcasein. In kind it is biochemical. As to conditions: recombinant human TG2 10 nM; dansylcadaverine incorporation into dimethylcasein; read-out: IC50 TG2. The essentials:
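Recombinant human TG2 (10 nM final) incorporates dansylcadaverine into N,N-dimethylcasein. Reaction mix: 50 mM Tris-HCl, 10 mM CaCl2, 10 mM glutathione, 2.5% glycerol, 16.7 µM dansylcadaverine, 4 µM dimethylcasein, 200 mM NaCl, pH 8.0. Fluorescence (ex 330/em 500 nm) was followed 30 min at 37 °C; the 20–30 min slope, expressed as % of 2% DMSO control, gave IC50.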

Data set [2] in a line: logD by shake flask method (octanol / PBS pH 7.4, HPLC). The data set is classed as physicochemical. Particulars: octanol / PBS pH 7.4, shake flask. Summed up: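 Shake-flask partition of compound between octanol and phosphate-buffered saline at pH 7.4, with each phase quantified by HPLC to give LogD.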
A short description of data set [3]: Caco-2 permeability assay (CacoReady kit). In kind it is in vitro ADME. Particulars: human, Caco-2, Caco-2 barrier, CacoReady kit; above 1×10^−6 cm/s classified as permeable. Summed up:
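Read-out is the permeability coefficient Papp, obtained from transport across a Caco-2 barrier prepared from a ready-to-use kit following the manufacturer's instructions.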
(In general: Caco-2 cells form a polarised layer with tight junctions and transporters.)

pIC50: −log10 of the molar value.

As a reminder, the pIC50 is the negative decadic logarithm of the IC50, by convention in mol/L. The logD is the decadic logarithm of the distribution of all forms, ionised or not, between an organic phase and buffer at a given pH. Low values mean lower lipophilicity, high ones higher lipophilicity. Broadly, the Papp is a coefficient for how fast a substance crosses the barrier. Read a high Papp as fast passage. In the case of `CNC(=O)C(=O)CC[C@H](NC(=O)c1sc(C(F)(F)F)nc1C)C(=O)Nc1cccn(CC(=O)N[C@@H]2C[C@H]3CC[C@@H]2C3)c1=O` [II-129, (2S)-N1-(1-(2-((1R,2R,4S)-bicyclo[2.2.1]heptan-2-ylamino)-2-oxoethyl)-2-oxo-1,2-dihydropyridin-3-yl)-N6-methyl-2-(4-methyl-2-(trifluoromethyl)thiazole-5-carboxamido)-5-oxohexanediamide], in data set [1], the pIC50 was 6.40 to 7.40. This compound displayed a logD in data set [2] of 1 to 3. Further, the Papp in data set [3] was < 1 ×10⁻⁶ cm/s.

For the compound `CNC(=O)C(=O)CC[C@H](NC(=O)c1cncnc1C)C(=O)Nc1cccn(CC(=O)NC2C3CC4CC2CC(C(=O)O)(C4)C3)c1=O` (stereo partly drawn) [II-173, (S)-N1-(1-(2-(5-carboxy-2-aminoadamantane)-2-oxoethyl)-2-oxo-1,2-dihydropyridin-3-yl)-N6-methyl-2-(4-methylpyrimidine-5-carboxamido)-5-oxohexanediamide], the pIC50 in data set [1] is 6.40 to 7.40. Also, the logD in data set [2] is < 1. In data set [3], the Papp was < 1 ×10⁻⁶ cm/s.

With `O=C(Cn1cccc(NC(=O)[C@H](CCC(=O)C(=O)NC2CC2)NC(=O)c2cc3ccccc3o2)c1=O)NC1C2CC3CC(C2)CC1C3` (stereo partly drawn) [II-121, (S)-2-(benzofuran-2-carboxamido)-N6-cyclopropyl-N1-(1-(2-(2-adamantylamino)-2-oxoethyl)-2-oxo-1,2-dihydropyridin-3-yl)-5-oxohexanediamide], the pIC50 in data set [1] was 6.40 to 7.40. The compound also came in with a logD in data set [2] of 3 to 5. Besides, in data set [3], the Papp was in the range of 1 to 10 ×10⁻⁶ cm/s.

For the compound `CNC(=O)C(=O)CC[C@H](NC(=O)c1ccc2c(c1)CCCN2)C(=O)Nc1cccn(CC(=O)NC23CCC(C2)C3)c1=O` [II-185, (S)-N1-(1-(2-(bicyclo[2.1.1]hexan-1-ylamino)-2-oxoethyl)-2-oxo-1,2-dihydropyridin-3-yl)-N6-methyl-5-oxo-2-(1,2,3,4-tetrahydroquinoline-6-carboxamido)hexanediamide], the pIC50 in data set [1] is 5.60 to 6.40. The log distribution coefficient (logD) in data set [2] was < 1. The Papp in data set [3] was < 1 ×10⁻⁶ cm/s.

Turning to `Cc1c(C(=O)N[C@@H](CCC(=O)C(N)=O)C(=O)Nc2cccn(CC(=O)N[C@@H]3C[C@H]4CC[C@@H]3C4)c2=O)oc2ccccc12` [II-147, (S)-N1-(1-(2-((1R,2R,4S)-bicyclo[2.2.1]heptan-2-ylamino)-2-oxoethyl)-2-oxo-1,2-dihydropyridin-3-yl)-2-(3-methylbenzofuran-2-carboxamido)-5-oxohexanediamide], the pIC50 in data set [1] is > 7.40. Also, in data set [2], the logD is < 1. Further, the Papp in data set [3] was in the range of 1 to 10 ×10⁻⁶ cm/s.

Turning to `Cc1cn2c(C(=O)N[C@@H](CCC(=O)C(=O)NC(C)(C)C)C(=O)Nc3cccn(CC(=O)NC4C5CC6CC(C5)CC4C6)c3=O)csc2n1` (stereo partly drawn) [II-177, (S)-N1-tert-butyl-N6-(1-(2-(2-adamantylamino)-2-oxoethyl)-2-oxo-1,2-dihydropyridin-3-yl)-5-(6-methylimidazo[2,1-b]thiazole-3-carboxamido)-2-oxohexanediamide], the pIC50 in data set [1] is 5.60 to 6.40. Moreover, the logD in data set [2] was 3 to 5. This compound gave a Papp in data set [3] of 1 to 10 ×10⁻⁶ cm/s.

As for `CNC(=O)C(=O)CC[C@H](NC(=O)c1cnn(C)c1)C(=O)Nc1cccn(CC(=O)NC2C3CC4CC(C3)CC2C4)c1=O` (stereo partly drawn) [II-139, (S)-N1-(1-(2-(2-adamantylamino)-2-oxoethyl)-2-oxo-1,2-dihydropyridin-3-yl)-N6-methyl-2-(1-methyl-1H-pyrazole-4-carboxamido)-5-oxohexanediamide], in data set [1], the negative-log IC50 (pIC50) was 5.60 to 6.40. Moreover, in data set [2], the logD was < 1. Further, the Papp in data set [3] was < 1 ×10⁻⁶ cm/s.

Take `CNC(=O)C(=O)CC[C@H](NC(=O)c1ccc2c(c1)CC(=O)NC2)C(=O)Nc1cccn(CC(=O)NC2(C(=O)O)C3CC4CC2CC(C(F)(F)F)(C4)C3)c1=O` (stereo partly drawn) [II-186, (S)-N1-(1-(2-(2-carboxy-2-amino-5-(trifluoromethyl)adamantane)-2-oxoethyl)-2-oxo-1,2-dihydropyridin-3-yl)-N6-methyl-5-oxo-2-(3-oxo-1,2,3,4-tetrahydroisoquinoline-6-carboxamido)hexanediamide]: the pIC50 in data set [1] is 5.60 to 6.40. The logD in data set [2] was < 1. For the same compound, the apparent permeability coefficient (Papp) in data set [3] was < 1 ×10⁻⁶ cm/s.

Turning to `CNC(=O)C(=O)CC[C@H](NC(=O)c1scc(Br)c1C)C(=O)Nc1cccn(CC(=O)NC2C3CC4CC(C3)CC2C4)c1=O` (stereo partly drawn) [II-41, (S)-2-(4-bromo-3-methylthiophene-2-carboxamido)-N1-(1-(2-(2-adamantylamino)-2-oxoethyl)-2-oxo-1,2-dihydropyridin-3-yl)-N6-methyl-5-oxohexanediamide], in data set [1], the pIC50 was 6.40 to 7.40. The logD in data set [2] was 3 to 5. In data set [3], this compound yielded a Papp of 1 to 10 ×10⁻⁶ cm/s.

Consider `CNC(=O)C(=O)CC[C@H](NC(=O)c1cc2ccccc2o1)C(=O)Nc1cccn(CC(=O)NC2C3CCCC2CC3)c1=O` (stereo partly drawn) [II-171, (2S)-2-(benzofuran-2-carboxamido)-N1-(1-(2-(bicyclo[3.2.1]octan-8-ylamino)-2-oxoethyl)-2-oxo-1,2-dihydropyridin-3-yl)-N6-methyl-5-oxohexanediamide], for which the pIC50 in data set [1] is > 7.40. Besides, the logD in data set [2] was < 1. Also, the Papp in data set [3] was 1 to 10 ×10⁻⁶ cm/s.

`CNC(=O)C(=O)CC[C@H](NC(=O)c1sc(Br)c(Br)c1OC)C(=O)Nc1cccn(CC(=O)NC2C3CC4CC(C3)CC2C4)c1=O` (stereo partly drawn) [II-46, (S)-2-(4,5-dibromo-3-methoxythiophene-2-carboxamido)-N1-(1-(2-(2-adamantylamino)-2-oxoethyl)-2-oxo-1,2-dihydropyridin-3-yl)-N6-methyl-5-oxohexanediamide]: in data set [1], the pIC50 is 6.40 to 7.40. For the same compound, in data set [2], the logD fell in the range of 3 to 5. Besides, the Papp in data set [3] is < 1 ×10⁻⁶ cm/s.

As to `CC(C)(C)NC(=O)C(=O)CC[C@H](NC(=O)[C@@H]1CN2CCN1CC2)C(=O)Nc1cccn(CC(=O)NC2C3CC4CC(C3)CC2C4)c1=O` (stereo partly drawn) [II-175, (S)-2-((S)-1,4-diazabicyclo[2.2.2]octane-2-carboxamido)-N6-tert-butyl-N1-(1-(2-(2-adamantylamino)-2-oxoethyl)-2-oxo-1,2-dihydropyridin-3-yl)-5-oxohexanediamide], the pIC50 in data set [1] was 5.60 to 6.40. In data set [2], this compound came in with a logD of 1 to 3. Besides, the Papp in data set [3] was < 1 ×10⁻⁶ cm/s.

For `NC(=O)C(=O)CC[C@H](NC(=O)c1cc2ccccc2o1)C(=O)Nc1cccn(CC(=O)N[C@@H]2C[C@H]3CC[C@@H]2C3)c1=O` [II-146, (S)-2-(benzofuran-2-carboxamido)-N1-(1-(2-((1R,2R,4S)-bicyclo[2.2.1]heptan-2-ylamino)-2-oxoethyl)-2-oxo-1,2-dihydropyridin-3-yl)-5-oxohexanediamide], in data set [1], the pIC50 was > 7.40. In data set [2], the logD was < 1. In addition, the Papp in data set [3] was 1 to 10 ×10⁻⁶ cm/s.

On to `CNC(=O)C(=O)CC[C@H](NC(=O)c1ccc(Cl)o1)C(=O)Nc1cccn(CC(=O)NC2C3CC4CC(C3)CC2C4)c1=O` (stereo partly drawn) [II-26, (S)-2-(5-chlorofuran-2-carboxamido)-N1-(1-(2-(2-adamantylamino)-2-oxoethyl)-2-oxo-1,2-dihydropyridin-3-yl)-N6-methyl-5-oxohexanediamide], for which the pIC50 in data set [1] is 6.40 to 7.40. In data set [2], this compound yielded a logD of 1 to 3. Also, the Papp in data set [3] was in the range of 1 to 10 ×10⁻⁶ cm/s.

With `O=C(Cn1cccc(NC(=O)[C@H](CCC(=O)C(=O)NC2CCCC2)NC(=O)c2nc3ccccc3s2)c1=O)N[C@@H]1C[C@@H]2CC[C@H]1C2` [II-178, (S)-2-(benzo[d]thiazole-2-carboxamido)-N1-(1-(2-((1S,2R,4R)-bicyclo[2.2.1]heptan-2-ylamino)-2-oxoethyl)-2-oxo-1,2-dihydropyridin-3-yl)-N6-cyclopentyl-5-oxohexanediamide], the pIC50 in data set [1] is 6.40 to 7.40. The compound also showed a logD in data set [2] of 3 to 5. This compound also yielded a Papp in data set [3] of 1 to 10 ×10⁻⁶ cm/s.

Consider `CNC(=O)C(=O)CC[C@H](NC(=O)c1ncn(C)n1)C(=O)Nc1cccn(CC(=O)NC2C3CC4CC(C3)CC2C4)c1=O` (stereo partly drawn) [II-135, (S)-N1-(1-(2-(2-adamantylamino)-2-oxoethyl)-2-oxo-1,2-dihydropyridin-3-yl)-N6-methyl-2-(1-methyl-1H-1,2,4-triazole-3-carboxamido)-5-oxohexanediamide], for which, in data set [1], the pIC50 was 6.40 to 7.40. Moreover, the logD in data set [2] is < 1. The compound also showed a Papp in data set [3] of 1 to 10 ×10⁻⁶ cm/s.
